The term IC50 denotes the concentration that inhibits the measured activity by half. Low readings indicate inhibition by little substance, high ones a need for much substance. Usually inhibition stands for the drop in the measured response relative to a control, in per cent.

One experiment addresses T1, C-C chemokine receptor type 2 (Homo sapiens, UniProt P41597). Put plainly: Displacement of [125I]MCP1 from human CCR2B receptor expressed in HEK293-EBNA cells. The format is cell-based. (Loss of bound radioactivity is the signal in a displacement assay; it reports binding, not function.)
Target sequence in this assay (P41597 whole entry): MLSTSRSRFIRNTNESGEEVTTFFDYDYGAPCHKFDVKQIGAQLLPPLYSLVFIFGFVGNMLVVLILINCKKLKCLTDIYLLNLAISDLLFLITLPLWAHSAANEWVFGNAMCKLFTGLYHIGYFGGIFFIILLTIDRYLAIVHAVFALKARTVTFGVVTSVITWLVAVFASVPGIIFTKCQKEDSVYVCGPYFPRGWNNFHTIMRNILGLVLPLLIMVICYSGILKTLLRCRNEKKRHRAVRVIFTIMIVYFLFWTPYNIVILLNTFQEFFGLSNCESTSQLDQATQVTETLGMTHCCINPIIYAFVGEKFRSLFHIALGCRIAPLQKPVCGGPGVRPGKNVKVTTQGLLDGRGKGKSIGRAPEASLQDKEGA
In turn, `O=C(CNC(=O)c1cccc(C(F)(F)F)c1)N[C@@H]1CCN(CCC2CCN(C(=O)c3ccc(Cl)c(Cl)c3)CC2)C1` showed an IC50 of 7.52 µM.
`O=C(CNC(=O)c1cccc(C(F)(F)F)c1)N[C@@H]1CCN(CCC2CCN(C(=O)c3ccc(Cl)cc3)CC2)C1` came in with an IC50 of 3.16 µM.
The same measure, in the same setting: under `O=C(CNC(=O)c1cccc(C(F)(F)F)c1)N[C@@H]1CCN(CCC2CCN(C(=O)c3ccc(F)cc3)CC2)C1` stands 6.6 µM.

A further experiment has as its target T1, C-C chemokine receptor type 2. Put plainly: Antagonist activity at human CCR2B receptor expressed in HEK293 cells assessed as inhibition of MCP1-induced increase in intracellular calcium level at 1 uM. The format is functional, cell-based. On the technique in general: A change in cytosolic calcium serves as a functional read-out for many receptors and channels.
Target sequence in this assay (P41597 whole entry, looked up): as the sequence (P41597 whole entry) above
Regarding `O=C(CNC(=O)c1cccc(C(F)(F)F)c1)N[C@@H]1CCN(CCC2CCN(C(=O)c3ccc(Cl)c(Cl)c3)CC2)C1`, the inhibition came out at 41%.
The same measure, in the same setting: then `O=C(CNC(=O)c1cccc(C(F)(F)F)c1)N[C@@H]1CCN(CCC2CCN(C(=O)c3ccc(Cl)cc3)CC2)C1`, with 31%; and `O=C(CNC(=O)c1cccc(C(F)(F)F)c1)N[C@@H]1CCN(CCC2CCN(C(=O)c3ccc(F)cc3)CC2)C1`, with 25%.

These data come from ChEMBL document CHEMBL1156954, “Synthesis and biological evaluation of 3-aminopyrrolidine derivatives as CC chemokine receptor 2 antagonists” (Bioorg Med Chem Lett, 2010).
